Consider 3 compounds from ChEMBL document CHEMBL5696442, “Discovery of type II inhibitors of TGFβ-activated kinase 1 (TAK1) and mitogen-activated protein kinase kinase kinase kinase 2 (MAP4K2)” (J Med Chem, 2015).

Assay [1] addresses Calcium/calmodulin-dependent protein kinase type II subunit gamma (Homo sapiens) (UniProt Q13555). The experiment in a line: Inhibition of CaMK2g Lys1 labeling site harbouring KTSTQEYAAKIINTKK in human A-375 cells at 5 uM by KiNativ Profiling analysis relative to control. It counts as cell-based.
In assay [2] the test system is eIF-2-alpha kinase GCN2 (Homo sapiens), Q9P2K8 [S808G]. The experiment in a line: Inhibition of GCN2 kinase domain 2 S808G mutant (unknown origin) at 1 uM by Ambit Kinomescan binding assay relative to control.
The target of assay [3] is T1, Serine/threonine-protein kinase NLK (Homo sapiens) (UniProt Q9UBE8).
T1 sequence (whole entry): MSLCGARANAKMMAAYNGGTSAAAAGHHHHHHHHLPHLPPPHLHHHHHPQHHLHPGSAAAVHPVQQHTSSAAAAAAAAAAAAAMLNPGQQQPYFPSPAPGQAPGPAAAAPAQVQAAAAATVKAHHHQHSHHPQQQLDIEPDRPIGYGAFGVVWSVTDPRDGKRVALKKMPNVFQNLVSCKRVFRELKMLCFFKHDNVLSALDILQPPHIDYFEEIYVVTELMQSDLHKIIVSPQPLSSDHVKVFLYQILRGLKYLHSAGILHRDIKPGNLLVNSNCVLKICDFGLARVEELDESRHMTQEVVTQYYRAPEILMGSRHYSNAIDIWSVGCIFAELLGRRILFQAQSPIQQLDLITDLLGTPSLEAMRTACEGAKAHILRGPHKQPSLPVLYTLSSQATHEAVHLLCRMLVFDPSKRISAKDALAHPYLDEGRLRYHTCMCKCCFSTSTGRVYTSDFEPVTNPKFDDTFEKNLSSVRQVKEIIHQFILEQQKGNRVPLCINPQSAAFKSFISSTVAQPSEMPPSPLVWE
Put plainly: Inhibition of NLK (unknown origin) at 1 uM by Ambit Kinomescan binding assay relative to control; values are per cent of control.

The test system of assay [4] is Tyrosine-protein kinase ABL1 (Homo sapiens), P00519 [Y253F]. The experiment in a line: Inhibition of phosphorylated ABL1 Y253F mutant (unknown origin) at 1 uM by Ambit Kinomescan binding assay relative to control; values are per cent of control.
The target of assay [5] is Serine/threonine-protein kinase Nek6 (Homo sapiens) (UniProt Q9HC98). Put plainly: Inhibition of NEK6 (unknown origin) at 1 uM by Ambit Kinomescan binding assay relative to control; values are per cent of control.
Sequence of Serine/threonine-protein kinase Nek6 (Homo sapiens) (Q9HC98 whole entry): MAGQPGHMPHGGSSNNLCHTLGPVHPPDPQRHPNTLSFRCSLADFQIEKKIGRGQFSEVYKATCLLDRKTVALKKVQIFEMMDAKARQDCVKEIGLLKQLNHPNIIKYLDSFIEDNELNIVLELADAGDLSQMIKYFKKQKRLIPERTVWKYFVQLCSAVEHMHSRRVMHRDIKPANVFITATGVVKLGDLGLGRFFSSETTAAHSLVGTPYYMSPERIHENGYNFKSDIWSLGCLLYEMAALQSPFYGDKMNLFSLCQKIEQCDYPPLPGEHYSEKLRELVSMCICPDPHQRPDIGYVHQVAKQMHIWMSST
Assay [6] has as its target Serine/threonine-protein kinase MARK2 (Homo sapiens) (UniProt Q7KZI7). Put plainly: Inhibition of MARK2 Lys2 labeling site harbouring FIVHRDLKAENLLLDADMNIK in human A-375 cells at 0.5 uM by KiNativ Profiling analysis relative to control. It counts as cell-based.
Assay [7] concerns the target Cyclin-dependent kinase-like 3 (Homo sapiens) (UniProt Q8IVW4). Put plainly: Inhibition of CDKL3 (unknown origin) at 1 uM by Ambit Kinomescan binding assay relative to control; values are per cent of control.
In assay [8] the target is Casein kinase I isoform gamma-3 (Homo sapiens) (UniProt Q9Y6M4). Put plainly: Inhibition of CSNK1G3 (unknown origin) at 1 uM by Ambit Kinomescan binding assay relative to control.
Sequence of Casein kinase I isoform gamma-3 (Homo sapiens) (Q9Y6M4 whole entry, looked up, canonical isoform): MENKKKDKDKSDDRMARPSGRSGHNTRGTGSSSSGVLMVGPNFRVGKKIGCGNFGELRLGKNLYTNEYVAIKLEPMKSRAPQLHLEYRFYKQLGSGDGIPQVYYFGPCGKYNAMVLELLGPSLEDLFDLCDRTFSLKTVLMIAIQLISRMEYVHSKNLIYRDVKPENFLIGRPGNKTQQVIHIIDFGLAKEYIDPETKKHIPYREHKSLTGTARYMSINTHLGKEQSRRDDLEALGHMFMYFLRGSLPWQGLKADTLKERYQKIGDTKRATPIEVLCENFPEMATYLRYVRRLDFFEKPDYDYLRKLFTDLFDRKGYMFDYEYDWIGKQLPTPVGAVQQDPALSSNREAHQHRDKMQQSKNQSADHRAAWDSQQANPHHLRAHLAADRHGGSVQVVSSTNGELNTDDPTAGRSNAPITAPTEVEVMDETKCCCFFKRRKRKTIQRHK
In assay [9] the target is Cyclin-dependent kinase 16 (Homo sapiens) (UniProt Q00536). The experiment in a line: Inhibition of PCTK1 (unknown origin) at 1 uM by Ambit Kinomescan binding assay relative to control.
In assay [10] the test system is Mast/stem cell growth factor receptor Kit (Homo sapiens), P10721 [V559D,V654A]. Put plainly: Inhibition of KIT V559D/V654A mutant (unknown origin) at 1 uM by Ambit Kinomescan binding assay relative to control; values are per cent of control.
Sequence of Mast/stem cell growth factor receptor Kit (Homo sapiens), P10721 [V559D,V654A] (P10721 whole entry V559D/V654A): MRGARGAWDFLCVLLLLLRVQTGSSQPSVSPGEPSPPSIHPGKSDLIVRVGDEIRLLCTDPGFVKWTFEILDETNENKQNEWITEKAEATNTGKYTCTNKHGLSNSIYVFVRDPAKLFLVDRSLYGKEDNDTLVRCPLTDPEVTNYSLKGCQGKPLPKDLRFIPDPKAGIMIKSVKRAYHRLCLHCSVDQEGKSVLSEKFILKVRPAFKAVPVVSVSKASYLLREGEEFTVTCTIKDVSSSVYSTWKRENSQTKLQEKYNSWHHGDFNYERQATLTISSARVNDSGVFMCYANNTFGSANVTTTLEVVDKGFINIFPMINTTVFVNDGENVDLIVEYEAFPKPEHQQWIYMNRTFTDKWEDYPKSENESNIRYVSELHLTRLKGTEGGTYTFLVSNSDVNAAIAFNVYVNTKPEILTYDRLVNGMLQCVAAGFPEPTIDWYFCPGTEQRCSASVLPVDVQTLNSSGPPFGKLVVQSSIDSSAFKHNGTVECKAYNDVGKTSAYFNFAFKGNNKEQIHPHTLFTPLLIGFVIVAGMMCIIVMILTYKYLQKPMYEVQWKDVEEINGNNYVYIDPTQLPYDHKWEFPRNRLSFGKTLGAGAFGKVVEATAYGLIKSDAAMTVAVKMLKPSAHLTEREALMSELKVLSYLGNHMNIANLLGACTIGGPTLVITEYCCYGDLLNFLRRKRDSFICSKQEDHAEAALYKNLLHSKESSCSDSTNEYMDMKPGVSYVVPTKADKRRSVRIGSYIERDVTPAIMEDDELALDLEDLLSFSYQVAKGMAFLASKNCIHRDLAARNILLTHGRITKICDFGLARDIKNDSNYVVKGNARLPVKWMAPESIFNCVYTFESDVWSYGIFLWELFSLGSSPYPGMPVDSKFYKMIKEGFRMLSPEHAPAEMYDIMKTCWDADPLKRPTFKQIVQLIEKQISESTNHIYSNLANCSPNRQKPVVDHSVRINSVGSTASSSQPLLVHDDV
Assay [11] deals with Cyclin-dependent kinase 7 (Homo sapiens) (UniProt P50613). Put plainly: Inhibition of CDK7 (unknown origin) at 10 uM by Ambit Kinomescan binding assay relative to control.
Sequence of Cyclin-dependent kinase 7 (Homo sapiens) (P50613 whole entry): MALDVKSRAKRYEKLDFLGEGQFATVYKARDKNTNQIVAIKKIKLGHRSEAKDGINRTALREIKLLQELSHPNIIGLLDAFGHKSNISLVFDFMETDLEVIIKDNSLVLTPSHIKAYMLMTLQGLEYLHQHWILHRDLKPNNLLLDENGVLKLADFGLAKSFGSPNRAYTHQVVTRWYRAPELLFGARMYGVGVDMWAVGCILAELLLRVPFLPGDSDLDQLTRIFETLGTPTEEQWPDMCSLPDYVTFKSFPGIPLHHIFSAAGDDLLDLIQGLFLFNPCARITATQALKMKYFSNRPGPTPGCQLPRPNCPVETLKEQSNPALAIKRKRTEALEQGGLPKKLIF
Assay [12] concerns the target Tyrosine-protein kinase CSK (Homo sapiens, UniProt P41240). Put plainly: Inhibition of CSK ACT labeling site harbouring VSDFGLTKEASSTQDTGKLPVK in human A-375 cells at 5 uM by KiNativ Profiling analysis relative to control. It counts as cell-based.
Assay [13] has as its target T2, Serine/threonine-protein kinase Chk1 (Homo sapiens) (UniProt O14757).
T2 sequence (whole entry): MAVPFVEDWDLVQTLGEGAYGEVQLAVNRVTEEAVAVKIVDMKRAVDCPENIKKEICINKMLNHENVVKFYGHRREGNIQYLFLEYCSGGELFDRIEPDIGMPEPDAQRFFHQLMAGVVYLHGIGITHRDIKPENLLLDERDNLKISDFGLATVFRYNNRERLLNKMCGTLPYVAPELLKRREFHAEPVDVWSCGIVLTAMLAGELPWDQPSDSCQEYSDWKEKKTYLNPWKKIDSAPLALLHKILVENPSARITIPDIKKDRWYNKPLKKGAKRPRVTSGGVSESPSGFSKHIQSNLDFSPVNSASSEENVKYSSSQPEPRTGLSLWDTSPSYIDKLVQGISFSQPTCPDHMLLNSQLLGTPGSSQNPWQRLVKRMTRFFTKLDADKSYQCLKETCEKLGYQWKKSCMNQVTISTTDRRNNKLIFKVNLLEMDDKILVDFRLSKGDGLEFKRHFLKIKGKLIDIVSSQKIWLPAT
The experiment in a line: Inhibition of CHEK1 (unknown origin) at 10 uM by Ambit Kinomescan binding assay.

In assay [14] the target is T2, Serine/threonine-protein kinase Chk1 (Homo sapiens). Put plainly: Inhibition of CHK1 K2 labeling site in human Huh-7 cells at 10 uM by KiNativ Profiling analysis relative to control. It counts as cell-based.
In assay [15] the target is Serine/threonine-protein kinase Nek6 (Homo sapiens) (UniProt Q9HC98). The experiment in a line: Inhibition of NEK6 (unknown origin) at 10 uM by Ambit Kinomescan binding assay.
The target in assay [16] is Serine/threonine-protein kinase MARK2 (Homo sapiens) (UniProt Q7KZI7). Put plainly: Inhibition of MARK2 K1 labeling site harbouring HILTGKEVAVKIIDKTQLNSSSLQK in human Huh-7 cells at 1 uM by KiNativ Profiling analysis relative to control. It counts as cell-based.
Sequence of Serine/threonine-protein kinase MARK2 (Homo sapiens) (Q7KZI7 whole entry): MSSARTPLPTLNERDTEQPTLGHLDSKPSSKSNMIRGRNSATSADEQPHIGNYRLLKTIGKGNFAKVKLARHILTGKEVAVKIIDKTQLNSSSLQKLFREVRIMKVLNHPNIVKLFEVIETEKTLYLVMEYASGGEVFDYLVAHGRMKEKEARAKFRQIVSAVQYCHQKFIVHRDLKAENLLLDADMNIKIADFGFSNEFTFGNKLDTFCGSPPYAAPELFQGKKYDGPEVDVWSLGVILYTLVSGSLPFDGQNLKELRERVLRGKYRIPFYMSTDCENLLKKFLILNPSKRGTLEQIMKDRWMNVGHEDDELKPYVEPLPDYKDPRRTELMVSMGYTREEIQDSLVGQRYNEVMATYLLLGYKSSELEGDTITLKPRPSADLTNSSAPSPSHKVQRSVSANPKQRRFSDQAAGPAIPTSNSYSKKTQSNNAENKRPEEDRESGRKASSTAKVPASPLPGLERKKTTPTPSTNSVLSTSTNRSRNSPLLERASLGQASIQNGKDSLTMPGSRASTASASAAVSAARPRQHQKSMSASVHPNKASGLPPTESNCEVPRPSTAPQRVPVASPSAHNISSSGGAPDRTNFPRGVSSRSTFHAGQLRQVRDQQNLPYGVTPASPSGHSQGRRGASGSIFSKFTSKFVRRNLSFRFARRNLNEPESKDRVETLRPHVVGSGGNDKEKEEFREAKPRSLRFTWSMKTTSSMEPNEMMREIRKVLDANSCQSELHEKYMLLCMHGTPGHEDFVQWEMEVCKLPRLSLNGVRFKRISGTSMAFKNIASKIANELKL
Assay [17] concerns the target Cyclin-dependent kinase 11A (Homo sapiens) (UniProt Q9UQ88). The experiment in a line: Inhibition of CDC2L2 (unknown origin) at 10 uM by Ambit Kinomescan binding assay relative to control; values are per cent of control.
For assay [18], the target named is Wee1-like protein kinase (Homo sapiens) (UniProt P30291). The experiment in a line: Inhibition of Wee1 Lys2 labeling site in human Huh-7 cell lysate at 1 uM by KiNativ Profiling analysis relative to control. It counts as subcellular.
Sequence of Wee1-like protein kinase (Homo sapiens) (P30291 whole entry, looked up): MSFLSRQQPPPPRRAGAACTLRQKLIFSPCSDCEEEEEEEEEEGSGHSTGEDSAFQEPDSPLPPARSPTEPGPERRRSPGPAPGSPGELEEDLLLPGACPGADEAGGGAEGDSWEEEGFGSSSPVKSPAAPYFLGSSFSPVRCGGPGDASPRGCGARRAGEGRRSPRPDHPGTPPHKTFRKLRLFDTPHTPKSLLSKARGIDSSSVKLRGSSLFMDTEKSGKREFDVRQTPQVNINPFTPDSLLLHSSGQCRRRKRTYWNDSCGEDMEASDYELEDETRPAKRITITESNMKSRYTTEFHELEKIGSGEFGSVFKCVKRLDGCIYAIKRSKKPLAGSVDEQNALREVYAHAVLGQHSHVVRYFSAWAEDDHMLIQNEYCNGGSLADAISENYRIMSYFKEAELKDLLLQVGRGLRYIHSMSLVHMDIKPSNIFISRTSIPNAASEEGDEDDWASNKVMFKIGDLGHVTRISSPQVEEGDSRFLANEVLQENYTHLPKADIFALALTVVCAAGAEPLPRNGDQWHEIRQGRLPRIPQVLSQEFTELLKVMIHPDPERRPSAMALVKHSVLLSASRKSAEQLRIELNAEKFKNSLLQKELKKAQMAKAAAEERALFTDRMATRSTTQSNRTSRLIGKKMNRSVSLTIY
The target of assay [19] is Serine/threonine-protein kinase OSR1 (Homo sapiens) (UniProt O95747). The experiment in a line: Inhibition of OSR1 Lys2 labeling site in human Huh-7 cells at 1 uM by KiNativ Profiling analysis relative to control.
Assay [20] addresses Serine/threonine-protein kinase 24 (Homo sapiens) (UniProt Q9Y6E0). The experiment in a line: Inhibition of MST3 Lys2 labeling site harbouring DIKAANVLLSEHGEVK in human Huh-7 cells at 1 uM by KiNativ Profiling analysis relative to control. It counts as cell-based.

Structures are written as SMILES. Activity calls are given as the source filed them. The calls are words filed in the database; no cut-off is given here.

As usually defined, the inhibition is the relative decrease from the control value, in per cent. Broadly, the residual activity is the share of the control activity or signal that is left under treatment.

Sequence of Cyclin-dependent kinase-like 3 (Homo sapiens) (Q8IVW4 whole entry, looked up, canonical isoform): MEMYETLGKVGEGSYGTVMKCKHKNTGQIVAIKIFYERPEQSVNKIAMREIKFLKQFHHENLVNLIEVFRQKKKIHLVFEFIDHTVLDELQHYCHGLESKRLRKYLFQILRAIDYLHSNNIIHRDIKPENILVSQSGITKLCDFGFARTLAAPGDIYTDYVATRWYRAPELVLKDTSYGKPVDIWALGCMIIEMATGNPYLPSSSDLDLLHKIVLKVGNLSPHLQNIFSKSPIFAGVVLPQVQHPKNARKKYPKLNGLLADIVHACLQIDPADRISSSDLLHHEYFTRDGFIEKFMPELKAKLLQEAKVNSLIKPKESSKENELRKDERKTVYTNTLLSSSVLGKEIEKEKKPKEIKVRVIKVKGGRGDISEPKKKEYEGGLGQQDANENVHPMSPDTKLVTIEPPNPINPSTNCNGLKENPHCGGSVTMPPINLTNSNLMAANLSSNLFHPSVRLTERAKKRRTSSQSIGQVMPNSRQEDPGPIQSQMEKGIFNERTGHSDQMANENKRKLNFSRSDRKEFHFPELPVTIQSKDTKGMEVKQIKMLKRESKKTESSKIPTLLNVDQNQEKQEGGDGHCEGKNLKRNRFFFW
Sequence of Serine/threonine-protein kinase 24 (Homo sapiens) (Q9Y6E0 whole entry, looked up): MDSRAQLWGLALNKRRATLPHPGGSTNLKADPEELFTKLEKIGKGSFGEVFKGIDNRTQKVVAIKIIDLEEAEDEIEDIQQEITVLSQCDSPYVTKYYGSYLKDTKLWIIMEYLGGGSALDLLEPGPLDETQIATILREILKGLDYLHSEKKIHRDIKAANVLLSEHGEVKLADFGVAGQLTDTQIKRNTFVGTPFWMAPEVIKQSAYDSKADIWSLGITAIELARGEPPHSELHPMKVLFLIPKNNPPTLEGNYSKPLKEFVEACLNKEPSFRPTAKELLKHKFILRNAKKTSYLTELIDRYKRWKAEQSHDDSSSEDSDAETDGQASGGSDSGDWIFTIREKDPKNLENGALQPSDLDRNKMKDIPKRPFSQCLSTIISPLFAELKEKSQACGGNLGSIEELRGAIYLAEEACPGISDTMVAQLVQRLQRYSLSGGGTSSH
Sequence of Tyrosine-protein kinase CSK (P41240 2-450 limits assumed): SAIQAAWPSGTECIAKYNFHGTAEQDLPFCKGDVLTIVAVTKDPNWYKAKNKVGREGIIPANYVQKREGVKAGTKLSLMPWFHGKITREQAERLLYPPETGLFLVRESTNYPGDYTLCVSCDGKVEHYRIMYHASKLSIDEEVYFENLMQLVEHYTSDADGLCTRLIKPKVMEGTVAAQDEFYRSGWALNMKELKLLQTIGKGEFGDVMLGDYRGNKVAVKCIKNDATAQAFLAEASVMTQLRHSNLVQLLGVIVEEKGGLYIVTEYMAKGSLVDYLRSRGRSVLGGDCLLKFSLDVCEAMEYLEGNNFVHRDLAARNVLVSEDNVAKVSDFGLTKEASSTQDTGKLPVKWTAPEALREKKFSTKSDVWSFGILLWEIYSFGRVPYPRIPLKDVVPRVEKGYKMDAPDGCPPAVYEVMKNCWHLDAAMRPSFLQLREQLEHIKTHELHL

For the compound `CCN1CCN(Cc2ccc(NC(=O)c3ccc(C)c(/C=C/c4cnc5[nH]ccc5c4OC)c3)cc2C(F)(F)F)CC1`, the inhibition in assay [1] was 11.4%; in assay [2] it was 11%; in assay [6], 2.9%; in assay [8], 71%; in assay [9], 100%. In addition, the residual activity was 18% in [3], 100% in assay [5], 50% in [7] and 7.1% in assay [10]. In addition, the percent of control in [4] was determined as 0.75%.

Turning to `CCN1CCN(Cc2ccc(NC(=O)c3ccc(C)c(Oc4ccnc5[nH]ccc45)c3)cc2C(F)(F)F)CC1`, the inhibition in assay [11] is 2.4%; in [12] it was 78.2%; in assay [14] it was 3.5%. For the same compound, the inhibition entry in [13], in assay [15] and in [16] was “inactive” in each case. In addition, the percent of control in [17] stood at 0.05%.

As for `CNc1cc(Oc2cc(C(=O)Nc3cc(N4CCN(C)CC4)cc(C(F)(F)F)c3)ccc2C)ncn1`, the values for the inhibition in assay [18], in assay [19] and in [20] were -4.1%, 57.3% and 4.3%, respectively.
